Paper PMC8118275, “Allosteric MAPKAPK2 inhibitors improve plaque stability in advanced atherosclerosis” (PLoS ONE, 2021)

Legend:
hMK2 = hMK2 (Homo sapiens, UniProt P49137); test: hMK2 inhibition; type: biochemical
[1] = system: forskolin-induced G6pc mRNA; test: Forskolin-induced G6pc mRNA in primary mouse hepatocytes (RT-qPCR); type: cell-based; details: TBX-1 1 h, then TBX-1 and forskolin 4 h in serum-free media
Protocol: Primary mouse hepatocytes were isolated from 8- to 12-week-old mice as described previously and cultured in media containing Dulbecco’s Modified Eagle’s Medium (DMEM) (Corning, #10-013-CV), 10% (vol/vol) heat-inactivated FBS, and 1X penicillin-streptomycin. After overnight incubation, the cells were washed twice with PBS, treated with the indicated concentrations of TBX-1 for 1 h, followed by treatment with TBX-1 and forskolin for 4 h in FBS-free media.
Immunoblot and quantitative RT-PCR (RT-qPCR) assays were conducted as previously described. […]
Densitometric quantification of the data are shown in the bar graphs (n = 5-6 mice/group; mean ± SEM, p = 0.003, p = 0.001 and p = 0.02, respectively).
S2 Fig. Blood leukocyte and monocyte counts are similar between control and MK2 inhibitor–treated mice. […] Whole blood was analyzed for the number of total white blood cells (A) and monocytes (B) from a randomly selected subset of TBX-1–treated Ldlr-/- mice (n = 19 mice/group; mean ± SEM). […]
S3 Fig. Lesional collagen content is increased, whereas macrophage and smooth muscle cell numbers are similar between control and MK2 inhibitor–treated mice. […] Picrosirius red staining was quantified, and collagen content is expressed as percent of total lesion area (n = 7-10 mice/group; mean ± SEM, p = 0.009 and p = 0.03, respectively). […]

[2] = Pharmacokinetics in CD-1 mice after single oral and intravenous administration; type: in vivo, mouse; details: for Clearance (Cl) / Cmax / F (oral bioavailability) / Half-life: CD-1 mice, TBX-1 1 mpk iv and 5 mpk po, TBX-2 1 mpk iv and 3 mpk po; for plasma half-life: mice, intravenous and oral administration
Protocol: The pharmacokinetics of the compounds were evaluated in CD-1 mice by single oral and intravenous routes of drug administration. The mice were fasted overnight before oral-gavage dosing of the compounds. The solutions used for PK studies were prepared by dissolving the compounds in 5% Solutol HS 15 in water. Following oral or intravenous administration of compounds, blood samples were collected at 0.08, 0.25, 0.5, 1, 2, 4, 6, 8, 12, and 24 h after dosing. Blood samples were centrifuged to separate plasma, and compound concentrations were determined by LC-MS. Dosing was well tolerated following oral and intravenous administration of both compounds, and no abnormal behavior was observed.

WD-fed Ldlr-/- mice = test: Metabolism, plasma lipids, blood cells and tolerability in WD-fed Ldlr-/- mice with established atherosclerosis; type: in vivo, mouse; details: ~30 mg/kg body weight per day in WD for 6 weeks; for blood leukocyte (total white blood cell) count / blood monocyte count: versus control
Protocol: (§1) Eight-week-old male Ldlr^-/- mice on the C57BL/6J background were purchased from Jackson Laboratory (stock # 002207) and fed a Western-type Diet (WD) for 16 weeks (Envigo, TD.88137; 21.2% fat, 0.2% cholesterol, 48.5% carbohydrate, and 17.3% protein by weight). Between weeks 10–16 of feeding, the WD of the experimental group was supplemented with TBX-1 or TBX-2 (600 mg/kg diet) to achieve a dose of ∼30 mg/kg body weight per day, whereas control mice remained on regular WD. The study included four separate cohorts, each comprised of 5 to 10 mice per group. The mice were randomly assigned to the different cohorts. Fasting blood glucose was measured in mice that were fasted for 5 h, with free access to water, using a glucose meter. Insulin tolerance test was performed in 5 h-fasted mice by assaying blood glucose at various times after injection of insulin (0.7 IU/kg body wt i.p.). Plasma insulin levels were measured in mice that were fasted for 5 h using an ultra-sensitive mouse insulin ELISA kit (Crystal Chem). At the time of harvest, mice were euthanized using isoflurane, and blood was then removed by left ventricular puncture. Animals were provided with food and water ad libitum and housed in standard cages at 22°C in a 12-12h light-dark cycle in a barrier facility. The Columbia University IACUC provided ethical approval for these studies, and procedures were conducted in accordance with approved animal protocols.
Total plasma cholesterol and triglyceride levels were measured using commercially available kits (Wako Diagnostics). Plasma lipoproteins were analyzed by running 200 μl of pooled plasma onto a fast protein liquid chromatography system consisting of 2 Superose 6 columns connected in series (Amersham Pharmacia Biotech) as described previously.

[3] = system: MK2 activity (phospho-hsp25); test: Phospho-hsp25 (MK2 substrate) in liver and aortic root lesions of WD-fed Ldlr-/- mice; type: in vivo, mouse; details: ~30 mg/kg body weight per day in WD for 6 weeks
Protocol: Eight-week-old male Ldlr^-/- mice on the C57BL/6J background were purchased from Jackson Laboratory (stock # 002207) and fed a Western-type Diet (WD) for 16 weeks (Envigo, TD.88137; 21.2% fat, 0.2% cholesterol, 48.5% carbohydrate, and 17.3% protein by weight). Between weeks 10–16 of feeding, the WD of the experimental group was supplemented with TBX-1 or TBX-2 (600 mg/kg diet) to achieve a dose of ∼30 mg/kg body weight per day, whereas control mice remained on regular WD. The study included four separate cohorts, each comprised of 5 to 10 mice per group. The mice were randomly assigned to the different cohorts. Fasting blood glucose was measured in mice that were fasted for 5 h, with free access to water, using a glucose meter. […] Plasma insulin levels were measured in mice that were fasted for 5 h using an ultra-sensitive mouse insulin ELISA kit (Crystal Chem). […]
Total lesion area and necrotic area analysis were carried out on hematoxylin and eosin (H&E)-stained aortic root lesional cross sections as previously described. Briefly, total lesion area (from internal elastic lamina to the lumen) and acellular/anuclear areas (negative for hematoxylin-positive nuclei) per cross section were quantified by taking the average of 6 sections spaced 30 μm apart beginning at the base of the aortic root. […] Three slides, each with 2 sections, were assessed for each mouse. […]

[4] = system: aortic root lesions of WD-fed Ldlr-/- mice; test: Aortic root atherosclerotic lesion analysis and in situ efferocytosis in WD-fed Ldlr-/- mice; type: in vivo, mouse; details: for total necrotic area: aortic root; for collagen content of the lesions / fibrous-cap thickness: picrosirius red; for collagen content of the lesions: percent of total lesion area; for fibrous-cap thickness: ratio of cap thickness to lesion size
Protocol: as §1
Total lesion area and necrotic area analysis were carried out on hematoxylin and eosin (H&E)-stained aortic root lesional cross sections as previously described. Briefly, total lesion area (from internal elastic lamina to the lumen) and acellular/anuclear areas (negative for hematoxylin-positive nuclei) per cross section were quantified by taking the average of 6 sections spaced 30 μm apart beginning at the base of the aortic root. Necrotic areas were defined as anuclear areas based on absence of hematoxylin staining. Collagen staining was performed using picrosirius red as per the manufacturer’s instructions (Polysciences Inc.), and fibrous cap thickness was quantified from 3 distinct regions of the plaque and scored per lesion size as previously described. For immunofluorescence staining, frozen sections were fixed in cold acetone for 10 minutes. After blocking for 1 hour in serum-free protein blocking buffer (DAKO, catalog X0909), sections were incubated overnight at 4°C with anti–phospho-hsp25 (CST, 1:200), anti-Mac2 (1:10,000), and smooth-muscle α actin (SMαA, 1:150) antibodies, rinsed with PBS three times, incubated with fluorescently-labeled secondary antibodies for 2 hours, and counterstained with DAPI. Three slides, each with 2 sections, were assessed for each mouse.
Experimentation was carried out as previously described. In brief, acetone-fixed aortic root sections were incubated with TUNEL (Roche) followed by staining with anti-Mac2 (1:10,000) to label macrophages. Apoptotic cells were then determined to be either macrophage-associated (colocalizing or juxtaposed with macrophages) or free (not associated with macrophages). Data were plotted as a ratio of associated-to free cells, which is a measure of efferocytosis.

Chain of hMK2 (P49137 whole entry): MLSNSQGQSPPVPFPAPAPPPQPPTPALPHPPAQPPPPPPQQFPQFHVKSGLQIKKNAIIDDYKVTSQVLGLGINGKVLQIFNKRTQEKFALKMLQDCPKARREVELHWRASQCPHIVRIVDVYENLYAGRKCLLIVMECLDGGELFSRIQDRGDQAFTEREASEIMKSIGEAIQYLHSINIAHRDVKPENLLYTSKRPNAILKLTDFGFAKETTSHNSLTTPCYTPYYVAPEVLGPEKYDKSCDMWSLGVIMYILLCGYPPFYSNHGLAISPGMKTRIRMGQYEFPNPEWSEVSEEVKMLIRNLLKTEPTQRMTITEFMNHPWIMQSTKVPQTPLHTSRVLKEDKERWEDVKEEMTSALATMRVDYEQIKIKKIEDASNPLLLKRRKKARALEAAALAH

IC50 (hMK2)	Clearance (Cl) [2]	Cmax [2]	F (oral bioavailability) [2]	Half-life [2]	plasma half-life [2]	SMILES	forskolin-induced G6pc mRNA [1]	blood leukocyte (total white blood cell) count (WD-fed Ldlr-/- mice)	blood monocyte count (WD-fed Ldlr-/- mice)	LDL-cholesterol (fast protein liquid chromatography of plasma) (WD-fed Ldlr-/- mice)	VLDL-cholesterol (fast protein liquid chromatography of plasma) (WD-fed Ldlr-/- mice)	phospho-hsp25 levels in atherosclerotic lesions ([3]; aortic root sections, MFI within Mac2+ area)	phosphorylation of hsp25 in liver ([3]; liver extracts, immunoblot)	total necrotic area [4]	collagen content of the lesions [4]	fibrous-cap thickness [4]
67 nM	24.8 mL/min/kg	58 nM	20.0%	2.7 h	2.7 h	CN(C)[C@@H]1CCN(c2ccc3c(c2)Cn2cc(-c4ccc(C#N)cc4)cc2-c2nncn2-3)C1 [TBX-1]	inhibited forskolin-induced G6pc mRNA in a dose-dependent manner	similar	similar	reduced	reduced	significantly reduced	efficiently reduced	significantly reduced	significantly increased	significantly increased
19 nM	12.2 mL/min/kg	296 nM	89.1%	3.1 h	3.1 h	CN(C)C[C@H]1CC(=O)N(c2ccc3c(c2)Cn2cc(-c4ccc(C#N)cc4)cc2-c2nccn2-3)C1 [TBX-2]		similar	similar	reduced	reduced			significantly reduced	significantly increased	significantly increased
